According to paper PMC10993450, “New benzimidazole derivative compounds with in vitro fasciolicidal properties” (Parasites & Vectors, 2024):
Where “and” joins values, the source holds several entries; their conditions need not be identical. Equal entries are not always repeated. Entries after “also recorded” stand apart in the source; their conditions may differ. Where two headings read alike, the source gives them in different places.

What was measured:
[1] = test system: Fasciola hepatica eggs (ABZ-susceptible isolate); test: Egg hatch test (EHT), ABZ-susceptible isolates; type: cell-based; conditions: mean ± SEM; for killing at 5 µM: Fasciola hepatica, read-out: % Ovicidal activity susceptible isolate; for % Ovicidal activity: ABZ-susceptible isolate
Method: Eggs were recovered from gallbladders of cattle naturally infected with F. hepatica at the municipal slaughterhouse of León (Spain). For this, the bile of the gallbladders was filtered through sieves of different diameter size pores (500, 150, and 20 µm) using pressurized tap water. Eggs retained on the 20 µm pore size sieve were collected and stored at 4 °C in darkness until required within a maximum period of 2 months.
The susceptibility of the isolates to ABZ was confirmed by the egg hatch test (EHT) using an ABZ discriminant dose (DD) of 0.5 µM [23]. The technique is described in more detail below.
The in vitro anthelmintic activity of a total of 70 BZDs was initially tested on F. hepatica eggs recovered from gallbladders of cattle naturally infected with ABZ-susceptible isolates. The first screening was performed using a fixed concentration of 50 µM. […] Therefore, only BZDs with ovicidal activities over 80% progressed to the next assays at 10 µM. […] At this last concentration, the ovicidal effect of ABZ, ABZSO, and OXF was also evaluated.
(§1) The in vitro EHT described in the current study was based on previous studies. Briefly, 100–120 eggs were incubated in 990 µL of water and 10 μL of each working solution at 25 °C in the dark for a period of 12 h. After incubation, eggs were gently washed with tap water three times to facilitate compound removal and kept in darkness at 25 °C for 14 days. After this period, eggs were exposed to light for 2 h to stimulate the hatching of eggs. Then, hatched and unhatched eggs were evaluated and counted using an optical microscope. The term “hatched eggs” includes both hatched and embryonated eggs. Negative control eggs were incubated with 10 μL of DMSO in 990 μL of water, reaching a maximum DMSO concentration of 1% (v/v), while ABZ at 0.5 µM was used as positive control. Each compound at a specific concentration was tested in triplicate in the same EHT and repeated at least two different days.
With the aim to characterize the susceptibility of isolates from naturally infected cattle, the drug used in the EHT was ABZ, tested at a discriminant dose of 0.5 μM. Drug susceptibility is assumed when the ovicidal activity is over 70%, resistance when is lower than 40%, and a suspicion of resistance when activity is between these values at 0.5 μM.
(§2) The efficacy of each compound and drug was calculated as its ovicidal activity following the formula below: Ovicidal activity%=100×%eggs hatched in negative control-%egg hatched after drug incubation/%egg hatched in control.

[2] = test system: Fasciola hepatica eggs (ABZ-resistant isolate); test: Egg hatch test (EHT), ABZ-resistant isolate; type: cell-based; conditions: for % Ovicidal activity resistant isolate: 5 µM, mean ± SEM; for Ovicidal activity on the resistant isolate: 10 µM as printed
Text: F. hepatica eggs were recovered after washing the gallbladder of three naturally infected sheep belonging to a flock suspected to be resistant to ABZ. From these eggs, metacercariae were produced at the Centro de Investigaciones de Mabegondo (AGACAL, Xunta de Galicia, Spain) following a previous protocol. These metacercariae were used to infect eight sheep with a dose of 200 metacercariae. The infection was confirmed individually 3 months after the infection by coprological analysis using a sedimentation technique. At that point, sheep were randomly located in two groups of four animals: one treated with a therapeutic dose of ABZ (7.5 mg/kg) and the other one only with water, as control group. To assess the efficacy of ABZ in this isolate, all sheep were humanely euthanized by an intravenous administration of a lethal dose of sodium pentobarbital (Dolethal®, Vetoquinol, Spain) 2 weeks later for fluke recovery and counting. Afterwards, the in vivo efficacy of ABZ was calculated as the percentage of adult worm reduction compared with the untreated control. Additionally, the number of eggs per gram of feces (EPG) was estimated on the treatment day (mentioned as day 0) and 14 days later to determine drug efficacy by means of the fecal egg count reduction test (FECRT).
During the necropsy, gallbladders from sheep belonging to the untreated group were taken to collect the eggs and carry out the in vitro EHT, while flukes collected from livers were used to conduct the adult viability test (AVT).
Those BZDs with an activity higher than 80% at a concentration of 10 µM were also screened on eggs and adults from the ABZ resistant isolate.
as §1, §2

[3] = test system: Fasciola hepatica adults (ABZ-resistant isolate); test: Adult viability test (AVT), motility inhibition; type: cell-based; conditions: for inhibition at 10 µM: Fasciola hepatica
Method: The adult viability test was based on a previous study carried out by Kirchhofer et al. with minor modifications. In brief, adult F. hepatica flukes were recovered from bile ducts of infected sheep with the resistant isolate. Flukes were quickly washed with 0.9% (w/v) NaCl and placed in six-well plates (Costar, Spain) with RPMI 1640 culture medium (Sigma-Aldrich®, Spain) supplemented with antibiotics (50 μg/mL streptomycin and 50 IU/mL penicillin; Sigma-Aldrich®, Spain) and 80 μg/mL of a hemin solution at 37 °C.
To monitor the anthelmintic effect of BZDs and the commercial drug ABZ, two flukes per well were incubated up to 72 h at a final concentration of 10 µM. DMSO at 0.5% was used as negative control. The individual movement of each fluke was examined using an inverted microscope at 24, 48, and 72 h. The activity of the compounds was estimated as motility inhibition, using a scale of fluke viability ranging from 3 (normal movements) to 0 (death, no movement observed for 2 min). All tests were repeated at least twice at different days.
Additionally, the percentage of motility inhibition for each compound was calculated from […] to 48 and 72 h after treatment using the following formula: 100 × (mean of the motility score of BZD at 24 h − mean of the motility score of BZD at 48 or 72 h)/(mean of the motility score of BZD at 24 h).
For the AVT, statistical analysis was performed using GraphPad Prism version 8.0.2. The normality of the motility inhibition scores was assessed using the Shapiro–Wilk test. Then, differences among scores at the three time points (24, 48, and 72 h) were evaluated using the Friedman test. In cases where significant differences were observed, post hoc analysis was conducted using the Nemenyi test for multiple comparisons. Comparisons with a P value < 0.05 were considered statistically significant.

[4] = test system: murine intestinal organoids; test: Intestinal tolerability assay on murine intestinal organoids; type: cell-based, mouse
Method: The murine intestinal organoid cultures were prepared following Stemcell Technologies™ protocols (https://www.stemcell.com/intestinal-epithelial-organoid-culture-with-intesticult-organoid-growth-medium-mouse-lp.html#protocols). Small intestine sections from C57BL/6 mice were excised, washed with ice-cold PBS, minced, and 2 mm segments were washed extensively. The segments were treated with Gentle Cell Dissociation Reagent (Stemcell Technologies™, Canada), resuspended in ice-cold PBS with 0.1% BSA and filtered. This process was repeated four times, resulting in four fractions. Cells from each fraction were centrifuged, washed, and resuspended in ice-cold DMEM/F12 supplemented with glutamine and HEPES 15 mM. Each fraction was mixed with Geltrex GFR LDEV-free (Gibco, Thermo Fisher Scientific, USA) and IntestiCult™ Organoid Grow Medium Mouse (Stemcell Technologies™, Canada), added to a 24-well plate and incubated at 37 °C for 10 min for matrix polymerization. The organoids were cultured in IntestiCult™ Organoid Grow Medium Mouse, with medium changes every 2 days and splitting after 7 days.
For intestinal tolerability assays, selected hit compounds were tested in mouse intestinal organoids at 25 and 50 µM final concentrations. The protocol, based on a previous work, involved the addition of Gentle Cell Dissociation Reagent (Stemcell Technologies™, Canada) on matrix domes, the disruption of the matrix, and the incubation the suspension. After centrifugation, cells were resuspended in DMEM/F12 supplemented with glutamine and HEPES 15 mM and centrifugated again. The pellet was resuspended in a mix of Geltrex GFR LDEV-free and IntestiCult™ Organoid Grow Medium Mouse. The mix was plated in 384-well plates, and after 4 days, mature organoids were exposed to the compounds. The positive control was hydrogen peroxide (0.15% v/v), and the negative control was DMSO (0.2%). Viability after 72 h was assessed using the alamarBlue assay.

HepG2 cells = test: Cytotoxicity assay, alamarBlue; type: cell-based, human
Method: The effect of the BZDs on cell viability was assessed on a human hepatocarcinoma HepG2 (ATCC® HB-8065™, USA) cell line. Only compounds screened at a concentration of 10 µM were evaluated. The detailed protocol is described in a previous study carried out by our research group. Briefly, 10,000 cells were seeded on 96-well plates and incubated with different concentrations of the compounds ranging from 1 to 100 µM at 37 °C and 5% CO2. After 72 h of exposure, viability of the cells was assessed using the alamarBlue (Fisher Scientific®, Spain) staining method according to the manufacturer’s recommendations.
The data are represented as mean ± standard error of media (SEM).

[5] = test system: Teladorsagia circumcincta eggs; conditions: type II BZDs; read-out: IC50 against T. circumcincta eggs; cited from earlier work

Compound: CCC[S+]([O-])c1ccc2[nH]c(NC(=O)OC)nc2c1 (stereo not shown) [ABZSO, albendazole sulfoxide, reference compound]
- killing at 5 µM [1]: > 98%
- % Ovicidal activity resistant isolate [2]: 26% and 26.12 ± 11.87%
- Ovicidal activity on the resistant isolate [2]: 26%
- Motility inhibition of adults after 72 h of incubation (in words; significance vs 24 h) ([3]; 10 µM, ABZ-resistant isolate): nor those with ABZSO or BZD46, exhibited any significant motility inhibition; also recorded: no evidence of inhibition; also recorded: did not produce any motility alteration
- inhibition at 10 µM ([3]; read-out: % Adult motility inhibition 48 h): 25%
- inhibition at 10 µM ([3]; read-out: % Adult motility inhibition 72 h): 25%

Compound: COc1ccc(-c2nc3cc(C)ccc3[nH]2)cc1 [BZD04]
- % Ovicidal activity ([1]; 10 µM): 64.27 ± 10.16%
- % Ovicidal activity ([1]; 50 µM): 99.57 ± 0.43%
- % Ovicidal activity ([1]; 50 µM, listed as BZD-04): higher than 80%
- % Viability in organoids ([4]; 50 µM): 10.50%

Compound: COc1ccc(-c2nc3cc(Cl)ccc3[nH]2)cc1 [BZD08]
- % Ovicidal activity ([1]; 10 µM): 55.33 ± 05.81%
- % Ovicidal activity ([1]; 10 µM, listed as BZD-08): around 50%
- % Ovicidal activity ([1]; 50 µM): 98.08 ± 1.06%
- % Ovicidal activity ([1]; 50 µM, listed as BZD-08): higher than 80%
- CC50 (HepG2 cells): > 50 µM
- % Viability in organoids ([4]; 25 µM): 69.30%
- % Viability in organoids ([4]; 50 µM): 47.30%

Compound: Cc1ccc2[nH]c(NCc3ccccc3)nc2c1 [BZD27]
- % Ovicidal activity ([1]; 10 µM): 44.65 ± 07.46%
- % Ovicidal activity ([1]; 10 µM, listed as BZD-27): around 50%
- % Ovicidal activity ([1]; 50 µM): 95.92 ± 1.99%
- % Ovicidal activity ([1]; 50 µM, listed as BZD-27): higher than 80%
- % Viability in organoids ([4]; 25 µM, 72 h): 54.10%
- % Viability in organoids ([4]; 50 µM, 72 h): 49.70%

Compound: Cc1ccc2[nH]c(NCc3ccco3)nc2c1 [BZD30]
- % Ovicidal activity ([1]; 10 µM): 52.41 ± 01.02%
- % Ovicidal activity ([1]; 10 µM, listed as BZD-30): around 50%
- % Ovicidal activity ([1]; 50 µM): 100.00 ± 0.00%
- % Ovicidal activity ([1]; 50 µM, listed as BZD-30): higher than 80%
- CC50 (HepG2 cells; 72 h exposure, alamarBlue, read-out: CC50 Hep-G2): > 50 µM
- % Viability in organoids ([4]; 25 µM, 72 h): 62.50%
- % Viability in organoids ([4]; 50 µM, 72 h): 54.00%

Compound: Clc1ccc2[nH]c(NCc3ccccc3)nc2c1 [BZD32]
- % Ovicidal activity ([1]; 10 µM): 09.11 ± 03.40%
- % Ovicidal activity ([1]; 50 µM): 92.62 ± 1.96%
- % Ovicidal activity ([1]; 50 µM, listed as BZD-32): higher than 80%
- % Viability in organoids ([4]; 25 µM): 48.10%
- % Viability in organoids ([4]; 50 µM): 52.10%

Compound: COc1ccc2[nH]c(NCc3ccc(N4CCCC4)cc3)nc2c1 [BZD38]
- % Ovicidal activity ([1]; 10 µM): 03.23 ± 00.84%
- % Ovicidal activity ([1]; 50 µM): higher than 80%
- CC50 (HepG2 cells): > 100 µM
- % Viability in organoids ([4]; 25 µM): 81.10%
- % Viability in organoids ([4]; 50 µM): 38.00%

Compound: COc1cc(C(=O)Nc2nc3cc(C)ccc3[nH]2)cc(OC)c1OC [BZD52]
- % Ovicidal activity ([1]; 50 µM): 02.50 ± 1.26%

Compound: Cc1ccc2[nH]c(NC(=O)Cc3ccc4ccccc4c3)nc2c1 [BZD53]
- % Ovicidal activity ([1]; 50 µM): 01.07 ± 0.62%

Compound: Cc1ccc2[nH]c(NC(=O)Cc3cccs3)nc2c1 [BZD54]
- % Ovicidal activity ([1]; 50 µM): 07.20 ± 3.47%

Compound: COc1ccc(C(=O)Nc2nc3cc(Cl)ccc3[nH]2)cc1 [BZD57]
- % Ovicidal activity ([1]; 50 µM): 60.39 ± 10.70%

Compound: COc1ccc(C(=O)Nc2nc3cc(OC)ccc3[nH]2)cc1 [BZD60]
- % Ovicidal activity ([1]; 50 µM): 01.08 ± 0.79%

Compound: COc1ccc2[nH]c(NC(=O)c3ccccn3)nc2c1 [BZD61]
- % Ovicidal activity ([1]; 50 µM): 93.17 ± 3.31%
- % Ovicidal activity ([1]; 50 µM, listed as BZD-61): higher than 80%
- IC50 [5]: < 1 µM

Compound: Cc1cc2nc(NC(=O)c3cccc(Cl)c3)[nH]c2cc1C [BZD65]
- % Ovicidal activity ([1]; 50 µM): 01.61 ± 0.82%

Compound: COc1ccc(C(=O)Nc2nc3cc(C)c(C)cc3[nH]2)cc1 [BZD66]
- % Ovicidal activity ([1]; 50 µM): 00.26 ± 0.25%

Compound: O=C(Nc1nc2cc(Cl)c(Cl)cc2[nH]1)c1ccccc1 [BZD67]
- % Ovicidal activity ([1]; 50 µM): 03.33 ± 2.51%

Compound: COc1ccc(C(=O)Nc2nc3cc(Cl)c(Cl)cc3[nH]2)cc1 [BZD70]
- % Ovicidal activity ([1]; 50 µM): 02.75 ± 1.16%

Compound: COC(=O)Nc1nc2ccc([S+]([O-])c3ccccc3)cc2[nH]1 (stereo not shown) [OXF, oxfendazole, reference compound]
- killing at 5 µM [1]: > 98%
- % Ovicidal activity resistant isolate [2]: 3% and 03.41 ± 02.08%
- Ovicidal activity on the resistant isolate [2]: 3.5%
